Results: ChEMBL document CHEMBL1201862, “PubChem BioAssay data set” (2004)
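Values below derive from 48-hour exposures of cells grown in 96-well plates, with endpoints linearly interpolated between the two concentrations bracketing the appropriate inhibition level. GI50 marks 50% less growth.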 Active and inactive are the calls of the source. Cut-off read from the data, not from the text of the source: active = GI50 up to about 1.1 µM and inactive = higher.

Experiments:
Assay in all cases: inhibition of tumour cell growth, NCI panel, 48 h
HCT-15 = tested on: HCT-15
TK-10 = tested on: TK-10
SF-268 = tested on: SF-268
NCI-H522 = tested on: NCI-H522
IGROV-1 = tested on: IGROV-1
OVCAR-5 = tested on: OVCAR-5
UACC-257 = tested on: UACC-257
EKVX = tested on: EKVX
RXF 393 = tested on: RXF 393
NCI-H226 = tested on: NCI-H226
KM12 = tested on: KM12
CCRF-CEM = tested on: CCRF-CEM
SK-MEL-2 = tested on: SK-MEL-2
BT-549 = tested on: BT-549
SNB-19 = tested on: SNB-19
DU-145 = tested on: DU-145
NCI/ADR-RES = tested on: NCI/ADR-RES
MDA-MB-435 = tested on: MDA-MB-435
UO-31 = tested on: UO-31
SR = tested on: SR

Compound | GI50 (HCT-15) | GI50 (TK-10) | GI50 (SF-268) | GI50 (NCI-H522) | GI50 (IGROV-1) | GI50 (OVCAR-5) | GI50 (UACC-257) | GI50 (EKVX) | GI50 (RXF 393) | GI50 (NCI-H226) | GI50 (KM12) | GI50 (CCRF-CEM) | GI50 (SK-MEL-2) | GI50 (BT-549) | GI50 (SNB-19) | GI50 (DU-145) | GI50 (NCI/ADR-RES) | GI50 (MDA-MB-435) | GI50 (UO-31) | GI50 (SR)
CC1=NCCN=C(C)C1/N=N/c1ccc2[nH]c(C)nc2c1 | 8.77 µM | 19.7 µM (inactive) | 21.2 µM (inactive) | 17.4 µM (inactive) | 25.9 µM (inactive) | 17.6 µM (inactive) | 11.3 µM (inactive) | 15.8 µM (inactive) | 16.3 µM (inactive) | 20.3 µM (inactive) | 11.7 µM (inactive) | 4.97 µM (inactive) | 19.2 µM (inactive) | 9.08 µM (inactive) | 10 µM (inactive) | 16.1 µM (inactive) | 12 µM (inactive) | 8.53 µM (inactive) |  | 
N#CCCN(CCC#N)c1ccc(/C=C2\N=C(c3ccccc3)N(c3ccccc3)C2=O)cc1 | 6.25 µM | > 100 µM (inactive) |  | 18.7 µM (inactive) | 25.8 µM (inactive) | > 100 µM (inactive) | > 100 µM (inactive) | > 100 µM (inactive) | > 100 µM (inactive) | > 100 µM (inactive) | > 100 µM (inactive) | 2.26 µM (inactive) | > 100 µM (inactive) | 57.1 µM (inactive) | > 100 µM (inactive) | > 100 µM (inactive) | > 100 µM (inactive) | > 100 µM (inactive) | > 100 µM (inactive) | 
O=c1ccn(C2OC(CN(O)CCC3C(O)C(CO)OC3n3ccc(=O)[nH]c3=O)C(O)C2O)c(=O)[nH]1 (stereo not drawn) | > 100 µM | > 100 µM (inactive) | > 100 µM (inactive) |  | > 100 µM (inactive) | > 100 µM (inactive) |  | > 100 µM (inactive) |  | > 100 µM (inactive) | > 100 µM (inactive) |  | > 100 µM (inactive) | > 100 µM (inactive) | > 100 µM (inactive) | > 100 µM (inactive) | > 100 µM (inactive) | > 100 µM (inactive) | > 100 µM (inactive) | 
CCN(CC)CCn1c(C(C)(C)C)nc2ccccc21 | > 100 µM | > 100 µM (inactive) | > 100 µM (inactive) | 38.6 µM (inactive) | > 100 µM (inactive) | > 100 µM (inactive) | > 100 µM (inactive) | > 100 µM (inactive) | > 100 µM (inactive) | > 100 µM (inactive) | > 100 µM (inactive) | > 100 µM (inactive) |  | 36.1 µM (inactive) | > 100 µM (inactive) | > 100 µM (inactive) | > 100 µM (inactive) |  | > 100 µM (inactive) | > 100 µM (inactive)
N#CC(CC(=O)O)=C(c1ccccc1)c1ccccc1 | > 100 µM | > 100 µM (inactive) | > 100 µM (inactive) | > 100 µM (inactive) | > 100 µM (inactive) | > 100 µM (inactive) | > 100 µM (inactive) | > 100 µM (inactive) |  | > 100 µM (inactive) | > 100 µM (inactive) |  | > 100 µM (inactive) | > 100 µM (inactive) | > 100 µM (inactive) |  | > 100 µM (inactive) | > 100 µM (inactive) | > 100 µM (inactive) | > 100 µM (inactive)
COC(=O)Nc1nc2cc(NC(=O)c3cccs3)ccc2[nH]1 | 23.9 µM | 36.6 µM (inactive) | 75.3 µM (inactive) |  | 0.296 µM (active) | 61.8 µM (inactive) |  | 40.3 µM (inactive) | 22.8 µM (inactive) | > 100 µM (inactive) | 21.6 µM (inactive) | 31.3 µM (inactive) | 24.9 µM (inactive) | 55.1 µM (inactive) | 32.1 µM (inactive) | 98.9 µM (inactive) | 17.9 µM (inactive) | 8.57 µM (inactive) | 10.1 µM (inactive) | 
O=S1(=O)OCc2ccccc21 | 59.3 µM | > 100 µM (inactive) | > 100 µM (inactive) | 79.8 µM (inactive) | > 100 µM (inactive) | > 100 µM (inactive) | > 100 µM (inactive) | > 100 µM (inactive) | > 100 µM (inactive) | 97.5 µM (inactive) | > 100 µM (inactive) | > 100 µM (inactive) | > 100 µM (inactive) | > 100 µM (inactive) | > 100 µM (inactive) | > 100 µM (inactive) | > 100 µM (inactive) | 58.1 µM (inactive) | > 100 µM (inactive) | 
CCCCOCCOCCOC1=C(Cl)C(=O)c2c(O)ccc(O)c2C1=O | 0.388 µM | 1.32 µM (inactive) | 0.759 µM (active) |  | 1.35 µM (inactive) | 2.52 µM (inactive) | 0.766 µM (active) | 2.57 µM (inactive) | 0.809 µM (active) | 1.79 µM (inactive) | 1.79 µM (inactive) | < 0.01 µM (active) |  | 1.39 µM (inactive) | 1.77 µM (inactive) | 1.77 µM (inactive) | 1.97 µM (inactive) |  | 1.35 µM (inactive) | < 0.01 µM (active)
O=C(O)c1ccccc1/C=N\N(CCO)C1=NCCN1 | > 100 µM | > 100 µM (inactive) | > 100 µM (inactive) |  | > 100 µM (inactive) | > 100 µM (inactive) |  | > 100 µM (inactive) | > 100 µM (inactive) | > 100 µM (inactive) | > 100 µM (inactive) | > 100 µM (inactive) | > 100 µM (inactive) | > 100 µM (inactive) | > 100 µM (inactive) | > 100 µM (inactive) |  | > 100 µM (inactive) | > 100 µM (inactive) | > 100 µM (inactive)
CC12C(=O)CC(CC1=O)C2(C)C | > 100 µM | > 100 µM (inactive) | > 100 µM (inactive) | > 100 µM (inactive) | > 100 µM (inactive) | > 100 µM (inactive) | > 100 µM (inactive) | > 100 µM (inactive) |  | > 100 µM (inactive) | > 100 µM (inactive) | > 100 µM (inactive) | > 100 µM (inactive) | > 100 µM (inactive) | > 100 µM (inactive) | > 100 µM (inactive) | > 100 µM (inactive) |  | > 100 µM (inactive) | 
CN(C)CCN(C)P12(Oc3ccccc3O1)Oc1c(Cl)c(Cl)c(Cl)c(Cl)c1O2 | 40 µM | > 100 µM (inactive) | 36.1 µM (inactive) |  | 45.4 µM (inactive) | 46.1 µM (inactive) | 29.5 µM (inactive) | 99.8 µM (inactive) |  | > 100 µM (inactive) |  | 29 µM (inactive) |  | 56.4 µM (inactive) | 56.6 µM (inactive) | 85.5 µM (inactive) | 35.8 µM (inactive) | 50.9 µM (inactive) | 39.1 µM (inactive) | 35.2 µM (inactive)
O=C1c2c(O)cccc2C(C2OC(CO)C(O)C(O)C2O)c2cc(CO)cc(O)c21 (stereo not drawn) | > 100 µM | > 100 µM (inactive) | > 100 µM (inactive) | > 100 µM (inactive) | > 100 µM (inactive) | > 100 µM (inactive) | > 100 µM (inactive) | > 100 µM (inactive) | > 100 µM (inactive) | > 100 µM (inactive) | > 100 µM (inactive) | > 100 µM (inactive) | > 100 µM (inactive) | > 100 µM (inactive) | > 100 µM (inactive) | > 100 µM (inactive) | > 100 µM (inactive) | > 100 µM (inactive) | > 100 µM (inactive) | 
